BigSolDB 2.1

CC(C)=CCC[C@@H](C)[C@H]1CC[C@@]2(C)C3=C(CC[C@]12C)[C@@]1(C)CC[C@H](O)C(C)(C)[C@@H]1CC3
Details | solubility (mole fraction)
in DMF, 277.15 K | 0.00035
in DMF, 284.65 K | 0.00051
in DMF, 289.15 K | 0.00063
in DMF, 294.65 K | 0.00073
in DMF, 297.35 K | 0.00089
in DMF, 300.15 K | 0.00103
in DMF, 303.05 K | 0.00138
in DMF, 308.46 K | 0.00187
in DMF, 318.55 K | 0.00294
in DMSO, 293.95 K | 0.00015
in DMSO, 297.65 K | 0.00019
in DMSO, 302.35 K | 0.00024
in DMSO, 307.15 K | 0.00031
in DMSO, 312.95 K | 0.00042
in DMSO, 318.69 K | 0.00057
in DMSO, 337.99 K | 0.00136
in acetone, 278.65 K | 0.00066
in acetone, 283.75 K | 0.00087
in acetone, 288.45 K | 0.00105
in acetone, 293.25 K | 0.00127
in acetone, 298.05 K | 0.00157
in acetone, 302.75 K | 0.00193
in acetone, 307.55 K | 0.00237
in acetone, 318.36 K | 0.0036
in acetonitrile, 277.09 K | 3e-05
in acetonitrile, 288.55 K | 6e-05
in acetonitrile, 293.35 K | 9e-05
in acetonitrile, 298.15 K | 0.00013
in acetonitrile, 303.05 K | 0.00015
in acetonitrile, 307.55 K | 0.00019
in acetonitrile, 312.25 K | 0.00026
in acetonitrile, 317.05 K | 0.00038
in ethanol, 277.95 K | 0.00036
in ethanol, 285.74 K | 0.00053
in ethanol, 293.45 K | 0.00075
in ethanol, 298.25 K | 0.00092
in ethanol, 307.15 K | 0.00135
in ethanol, 312.35 K | 0.00168
in ethanol, 318.05 K | 0.00214
in ethyl acetate, 277.67 K | 0.00076
in ethyl acetate, 288.55 K | 0.00127
in ethyl acetate, 293.25 K | 0.00165
in ethyl acetate, 298.05 K | 0.00187
in ethyl acetate, 302.85 K | 0.00235
in ethyl acetate, 307.45 K | 0.00284
in ethyl acetate, 318.64 K | 0.00443
in isopropanol, 278.07 K | 0.00047
in isopropanol, 287.81 K | 0.0006
in isopropanol, 298.84 K | 0.00095
in isopropanol, 307.27 K | 0.00159
in methanol, 277.78 K | 3e-05
in methanol, 288.15 K | 5e-05
in methanol, 298.15 K | 9e-05
in methanol, 303.05 K | 0.00011
in methanol, 312.15 K | 0.00016
in methanol, 316.95 K | 0.00021
in methanol, 321.65 K | 0.00032
in n-propanol, 278.07 K | 0.0009
in n-propanol, 287.81 K | 0.00144
in n-propanol, 298.84 K | 0.00209
in n-propanol, 307.27 K | 0.00304
in n-propanol, 318.93 K | 0.00478
